In the supplement of paper PMC10307832:

Columns and labels:
Assay in all cases: relative viability (nuclei count vs DMSO), 5 days (fraction); higher = more cells survive
[1] = compound: C1COCCN1C2=NC(=NC3=C2OC4=C3C=CC=N4)C5=CC(=CC=C5)NC(=O)C6=CN=C(C=C6)N + CCNC(=O)c1noc(-c2cc(C(C)C)c(O)cc2O)c1-c1ccc(CN2CCOCC2)cc1 [Luminespib] (partner 0.01 µM)
Procedure, shortened: (§1)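 Relative viability equals treated-well nuclei counts divided by vehicle-well nuclei counts. Counts came from 4× images of lung cancer cell lines grown in 1536-well plates for 5 days after pin-tool dosing on the day after seeding. Dosing used one drug alone or a fixed anchor-drug dose plus five library-drug doses (not always all listed) in √10 steps, and values are medians of duplicate plates.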

[2] = compound: C1COCCN1C2=NC(=NC3=C2OC4=C3C=CC=N4)C5=CC(=CC=C5)NC(=O)C6=CN=C(C=C6)N + CS(=O)(=O)CCNCc1ccc(-c2ccc3ncnc(Nc4ccc(OCc5cccc(F)c5)c(Cl)c4)c3c2)o1 [Lapatinib] (partner 2 µM)
Procedure, shortened: as §1

[3] = compound: C1COCCN1C2=NC(=NC3=C2OC4=C3C=CC=N4)C5=CC(=CC=C5)NC(=O)C6=CN=C(C=C6)N + NC(=O)Nc1cc(-c2cccc(F)c2)sc1C(=O)N[C@H]1CCCNC1 [AZD7762] (partner 0.2 µM)
Procedure, shortened: as §1

[4] = compound: Nc1ccccc1NC(=O)c1ccc(CNC(=O)OCc2cccnc2)cc1 [Entinostat] + CS(=O)(=O)N1CCN(Cc2cc3nc(-c4cccc5[nH]ncc45)nc(N4CCOCC4)c3s2)CC1 [Pictilisib] (partner 1 µM)
Procedure, shortened: as §1

Cell Line	relative viability ([1]; first compound 0.02 µM)	relative viability ([1]; first compound 0.06325 µM)	relative viability ([1]; first compound 0.2 µM)	relative viability ([1]; first compound 0.6325 µM)	relative viability ([1]; first compound 2 µM)	relative viability ([2]; first compound 0.02 µM)	relative viability ([2]; first compound 0.06325 µM)	relative viability ([2]; first compound 0.2 µM)	relative viability ([2]; first compound 0.6325 µM)	relative viability ([2]; first compound 2 µM)	relative viability ([3]; first compound 0.02 µM)	relative viability ([3]; first compound 0.06325 µM)	relative viability ([3]; first compound 0.2 µM)	relative viability ([3]; first compound 0.6325 µM)	relative viability ([3]; first compound 2 µM)	relative viability ([4]; first compound 0.02 µM)	relative viability ([4]; first compound 0.06325 µM)	relative viability ([4]; first compound 0.2 µM)	relative viability ([4]; first compound 0.6325 µM)	relative viability ([4]; first compound 2 µM)
NCI-H1734	0.169	0.197	0.204	0.182	0.156	1.18	1.09	0.935	0.902	0.558	0.661	0.612	0.497	0.498	0.422	0.454	0.513	0.459	0.41	0.289
NCI-H727	0.482	0.317	0.323	0.335	0.346	0.829	0.753	0.742	0.722	0.686	0.528	0.678	0.812	0.602	0.755	0.357	0.355	0.689	0.2	0.219
NCI-H23	0.185	0.203	0.191	0.208	0.212	1.43	1.15	1.18	0.988	0.719	0.241	0.23	0.24	0.174	0.216	0.496	0.576	0.499	0.404	0.296
NCI-H1395	0.666	0.555	0.789	0.658	0.482	0.782	1.13	0.91	0.983	0.831	0.387	0.348	0.374	0.371	0.372	0.598	0.758	0.64	0.67	0.487
NCI-H596	0.985	1.04	0.968	0.992	0.408	0.997	1.04	1	0.997	0.765	1.15	1.06	0.97	1.06	0.929	0.401	0.4	0.372	0.333	0.348
NCI-H460	0.0333	0.035	0.0284	0.0243	0.0278	0.907	1.12	1.11	0.578	0.0915	0.609	0.784	0.587	0.653	0.359	0.328	0.411	0.333	0.132	0.108
